Results from patent US12466801B2, “Cannabichromene derivatives and use thereof” (Remedy Processors LLC, priority 2023, dated 2025).
pKi: −log10 of the molar value.

What was measured:
cancer cell lines = assay: National Cancer Institute (NCI) 60 cell cancer screen, growth inhibition; type: cell-based; conditions: multiple dose study (dose-response); leukemia, non-small cell, colon, CNS, melanoma, ovarian, renal, prostate, breast cancer cell lines (FIGS. 3-11)
Method: (§1) A multiple dose study (dose-response) was then performed using Compound 8 across multiple cancer cell lines. […] A multiple dose study (dose-response) was then performed in PC3 cells using Compound 9. […] (See FIG. 2) The data was generated according to the National Cancer Institute (NCI) 60 cell cancer screen.

[1] = test system: prostate cancer PC3 cells; assay: NCI 60 cell cancer screen, multiple dose study (dose-response) in PC3 cells; type: cell-based; conditions: FIG. 2
Method: FIG. 2 provides data from a multiple dose study (dose-response) performed in prostate cancer PC3 cells.
as §1

[2] = target: dopamine transporter (DAT) (Homo sapiens, UniProt Q01959); assay: CNS receptor testing, affinity at dopamine transporter; type: binding; conditions: for affinity and selectivity for the dopamine transporter (DAT): result in words
Chain of dopamine transporter (DAT) (Q01959 whole entry, species assumed): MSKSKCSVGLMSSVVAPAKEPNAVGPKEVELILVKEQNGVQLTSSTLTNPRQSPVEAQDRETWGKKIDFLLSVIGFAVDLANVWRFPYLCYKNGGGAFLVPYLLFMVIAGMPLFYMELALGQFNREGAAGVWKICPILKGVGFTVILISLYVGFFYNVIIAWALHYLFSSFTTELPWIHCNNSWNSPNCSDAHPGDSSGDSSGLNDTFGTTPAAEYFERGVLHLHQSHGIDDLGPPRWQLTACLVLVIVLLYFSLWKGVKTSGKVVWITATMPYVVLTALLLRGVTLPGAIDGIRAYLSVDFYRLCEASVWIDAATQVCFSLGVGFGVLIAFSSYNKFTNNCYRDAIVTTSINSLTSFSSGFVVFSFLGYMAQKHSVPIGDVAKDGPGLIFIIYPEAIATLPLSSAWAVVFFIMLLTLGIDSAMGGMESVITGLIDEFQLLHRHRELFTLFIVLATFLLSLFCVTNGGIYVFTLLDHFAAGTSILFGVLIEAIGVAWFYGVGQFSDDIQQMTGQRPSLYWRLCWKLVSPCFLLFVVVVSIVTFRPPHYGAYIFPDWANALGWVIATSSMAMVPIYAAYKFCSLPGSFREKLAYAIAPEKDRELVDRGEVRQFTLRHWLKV
Method: The compounds were tested for affinity at various central nervous system receptors.

| SMILES | growth inhibition across multiple cancer cell lines (cancer cell lines) | growth inhibition of PC3 cells [1] | pKi [2] | affinity and selectivity for the dopamine transporter (DAT) [2] |
| --- | --- | --- | --- | --- |
| CCCCCc1cc(NC(=O)C(Cl)Cl)c2c(c1)OC(C)(CCC=C(C)C)C=C2 (stereo not drawn) [Compound 8] | provided growth inhibition |  |  |  |
| CCCCCc1cc(NC(=O)CC(F)(F)F)c2c(c1)OC(C)(CCC=C(C)C)C=C2 (stereo not drawn) [Compound 9] |  | inhibits the growth |  |  |
| CCCCCc1cc(NC(=O)C(F)(F)Br)c2c(c1)OC(C)(CCC=C(C)C)C=C2 (stereo not drawn) [Compound 10] |  |  | 7.07 | good affinity and selectivity |
| CCCCCc1cc(NC(=O)CCCC)c2c(c1)OC(C)(CCC=C(C)C)C=C2 (stereo not drawn) [Compound 12] |  |  | 6.97 | good affinity and selectivity |
